Data: patent US5565424A, “Superactive VIP antagonists” (Ramot - University Authority for Applied Research and …, priority 1994, dated 1996)
Non-standard residues stand in square brackets, D forms with d. Residues, ends and D or L forms follow the SMILES beside them. Nle = CCCC[C@H](N)C(=O)O

How the values were obtained:
[1] = system: dissociated mouse spinal cord cultures (neurons); assay: Neuronal survival in dissociated spinal cord cultures; format: cell-based
[2] = system: VIP-stimulated cAMP formation in astrocytes; assay: VIP-stimulated cAMP formation in cortical astrocyte cultures; format: cell-based, rat; details: 1 μM VIP, FIG. 2
Experimental: FIG. 2. VIP-stimulated cAMP formation was inhibited in the presence of the family of VIP antagonists. Cortical astrocyte cultures were incubated for 10 min with 1 μm VIP and cAMP accumulation was determined by radioimmunoassay (Gozes, et al., J. Pharmacol. & Exp. Therap., 257:959 (1991)). Increasing concentrations of the antagonists were placed in the astrocyte cultures 5 minutes prior to the addition of VIP. Astrocytes were maintained in 35 mm tissue culture dishes with 0.3 mg protein per dish. Each value is the mean of 8-10 determinations from 4 experiments. […] The error bar is the SEM.
In view of the foregoing, astroglia cells were utilized to compare the effects the VIP antagonists of the present invention have on VIP-stimulated cAMP formation. For cAMP determinations, the general protocols involve either the measurement of adenylate cyclase activity or, the use of radioimmunoassays for cAMP which utilize a cAMP determination kit from NEN (New England Nuclear, Boston, Mass.)36 previously described by Gozes, et al. (J. Pharmacol. Exp. Therap., 257:959 (1991)). An HCl (0.05M) extract neutralizecl with 0.5M NaOH may be utilized for the tests.
Rat astrocytes were maintained in cell culture as described above. The accumulation of cAMP was measured by radio-immunoassay (NEN kit, New England Nuclear) from cold trichloro acetic acid extracts (Evans et al., supra, 1984). […]

[3] = system: Sprague-Dawley rat pups, locomotive activity rhythm; assay: Circadian motor activity rhythms after chronic injection; format: in vivo; details: 5 μg/day subcutaneous, 28 days, newborn rat pups
Experimental: FIGS. 4(A-J). VIP antagonism disturbed the biological clock via a cAMP-mediated mechanism. Newborn rat pups (Sprague-Dawley, locally bread, Yoxheam, Israel) were chronically injected with VIP analogues (5 μg of each analogue/50 μl/day, subcutaneous), for 28 consecutive days. The vehicle of injection was either 0.01M acetic acid or 15% dimethylsulfoxide (for the lipophilic peptides). On day 21, the animals were placed each one in a separate cage and their locomotive activity was continuously measured. The pattern of locomotive activity was measured using an animal monitoring system with an infrared detector for 7 days (A, C, E, G, I). The spectral periods of rhythm in the activity data was detected by a special statistical method because of the short computer sampling period. […]
Animals were each placed in a separate cage and motor activity was continuously recorded for 6-9 days, using an animal monitoring system with an infrared detector. Spectral analysis of motor activity rhythms is then determined by the fitting of different cosine curves to the activity data (see, Mattes, et al., Chronobiology Int'l, 8:460 (1991)).

NCI-H1299 = details: for NSCLC colony formation (colonies): NCI-H1299, 1 μM addition, control 29 ± 3.1
NCI-H727 = details: for NSCLC colony formation (colonies): NCI-H727, 1 μM addition, control 35.2 ± 2.3
NCI-H226 = details: for NSCLC colony formation (colonies): NCI-H226, 1 μM addition, control 43.1 ± 5.7
[4] = system: cAMP (low affinity) VIP receptor on astroglia cells; assay: Displacement of 125I-VIP from astroglia cells; details: central nervous system, FIGS. 2 and 3
[5] = system: non-small cell lung cancer (NSCLC) cell lines; assay: NSCLC colony formation / cell growth, statements across cell lines
[6] = system: c-fos mRNA in NCIH810 cells; assay: c-fos mRNA assay; format: cell-based
Experimental: In addition, the ability of VIP and the S-hybrid VIP antagonist to stimulate c-fos mRNA was examined; c-fos mRNA is a marker for cancer cell proliferation. […] This is true regardless of whether the VIP antagonist is co-administered with VIP or added by itself (See, Table IV, infra).
^a NCIH810 cells were treated with the peptide and the cfos mRNA
determined after 1 hour.
For the c-fos experiments, SCLC cells were cultured with SIT medium containing 0.5% fetal bovine serum. After 4 hours, the cells were treated with stimuli such as 10 nM BN for 60 min. Total RNA was isolated using the guanidinium isothiocyanate (GIT) method. Ten μg of denatured RNA was separated in a 0.66M formaldehyde 1% agarose gel as previously described. The gel was treated with ethidium bromide tp assess RNA integrity. The RNA was blotted onto a nitrocellulose membrane overnight and the membrane hybridized with a c-fos probe labelled with ^32 P-dCTP using a Bethesda Research Laboratories random priming kit. The membrane was exposed to Kodax XAR-2 film at […] for 1 day and the autoradiogram developed. The autoradiogram were analyzed using a Molecular Dynamics densitometer.

[7] = system: neuroblastoma (NMB) cells; assay: Neuroblastoma (NMB) cell division by cell counts; format: cell-based, human
Experimental: FIG. 5. […] Neuroblastoma (NMB) cells have been grown in culture using RPMI-1640 medium supplemented with 10% fetal calf serum and gentamicin (100 μl of 40 mg/ml stock solution per 100 mL medium) in a humidified atmosphere of 5% CO2, 95% air. Cells were harvested with Puck's saline containing 0.25% trypsin and 0.02M EDTA every four days, centrifuged and seeded in 60 mm diameter tissue culture dishes (CORNING) at a density of 0.6-0.7×10^6 cells per dish.
For mitogenic assays, human NM cells were seeded in 35 mm diameter tissue culture dishes (CORNING) at a density of 0.2×10^6 cells per dish in RPMI-1640 medium plus 10% fetal calf serum. […] Cell counts were performed with a hemocytometer, using trypan blue staining for viability, on the second day (24 hours) after the VIP treatment. Results shown on the graph are cell/dish×1000. Error bars represent the standard error. Three-six replicates were counted for each data point and experiments were repeated three independent times.

[8] = system: neuroblastoma (NMB) cells; assay: Thymidine incorporation into neuroblastoma (NMB) cells; format: cell-based, human; details: 24 hours incubation, one day after seeding; read-out: EC50, stimulation of thymidine incorporation into NMB cells
[9] = system: VIP receptors on neuroblastoma (NMB) cells; assay: VIP binding and displacement on intact neuroblastoma (NMB) cells; set-up: species or system human
Experimental: Alternatively, the VIP was iodinated according to the procedure described by Werner, et al. (Biochem. Biophys. Res. Commun., 133:228-232 (1985)). […] Experiments were repeated at least three times, each containing triplicates, error bars represent the standard error. Cells were grown for 24 hours (circles) and 48 hours (triangles). […] The binding parameters were determined by ACCUFIT program, Lundon-2 competition analysis (LUNDON software Inc., Chargin Falls, Ohio, U.S.A.). […] The calculated Bmax was 6×10^-14 moles/mg and 1.5×10^-14 moles/mg for cells grown for 24 hours as compared to cells grown for 48 hours, respectively.

CCCC[C@H](NC(=O)[C@H](CCC(N)=O)NC(=O)[C@H](CCCCN)NC(=O)[C@H](CCCNC(=N)N)NC(=O)[C@H](CC(C)C)NC(=O)[C@H](CCCNC(=N)N)NC(=O)[C@@H](NC(=O)[C@H](Cc1ccc(O)cc1)NC(=O)[C@H](CC(N)=O)NC(=O)[C@H](CC(=O)O)NC(=O)[C@@H](NC(=O)[C@H](Cc1ccc(O)cc1)NC(=O)[C@@H]1CCCN1C(=O)[C@H](CCCNC(=N)N)NC(=O)[C@H](CCCNC(=N)N)NC(=O)[C@@H]1CCCN1C(=O)[C@@H](N)CCCCN)[C@@H](C)O)[C@@H](C)O)C(=O)N[C@@H](C)C(=O)N[C@H](C(=O)N[C@@H](CCCCN)C(=O)N[C@@H](CCCCN)C(=O)N[C@@H](Cc1ccc(O)cc1)C(=O)N[C@@H](CC(C)C)C(=O)N[C@@H](CC(N)=O)C(=O)N[C@@H](CO)C(=O)N[C@H](C(=O)N[C@@H](CC(C)C)C(=O)N[C@@H](CC(N)=O)C(N)=O)[C@@H](C)CC)C(C)C [NL-hybrid VIP antagonist] (H-KPRRPYTDNYTRLRKQ[Nle]AVKKYLNSILN-NH2)
fold more potent than the hybrid VIP antagonist at inducing neuronal cell death [1]: 10 fold
affinity for the VIP-neuronal survival associated receptor (in words) ([1]; central nervous system, FIG. 1): has an affinity for both
concentration of maximal effect on neuronal cell death ([1]; spinal cord cultures, FIG. 1): 10^-10 M
inhibition of VIP-induced cAMP formation (in words) [2]: effectively inhibits VIP-induced cAMP formation
effect on 24 hours periodicity of activity rhythm [3]: abolished this 24 hours periodicity
overall activity of the animals [3]: overall increase in the activity
inhibition of cell growth (NCI-H1299): 100%
NSCLC colony formation (colonies) (NCI-H1299): 0
inhibition of cell growth (NCI-H727): 88%
NSCLC colony formation (colonies) (NCI-H727): 4.2 ± 3.1
inhibition of cell growth (NCI-H226): 92%
NSCLC colony formation (colonies) (NCI-H226): 3.5 ± 2.5
affinity for the cAMP (low affinity) VIP receptor (in words) [4]: has an affinity for both
potency relative to the hybrid antagonist in inhibiting tumor cell growth ([5]; two out of three NSCLC cell lines): ten-fold more potent

CC[C@H](C)[C@H](NC(=O)[C@H](CO)NC(=O)[C@H](CC(N)=O)NC(=O)[C@H](CC(C)C)NC(=O)[C@H](Cc1ccc(O)cc1)NC(=O)[C@H](CCCCN)NC(=O)[C@H](CCCCN)NC(=O)[C@@H](NC(=O)[C@H](C)NC(=O)[C@H](CCSC)NC(=O)[C@H](CCC(N)=O)NC(=O)[C@H](CCCCN)NC(=O)[C@H](CCCNC(=N)N)NC(=O)[C@H](CC(C)C)NC(=O)[C@H](CCCNC(=N)N)NC(=O)[C@@H](NC(=O)[C@H](Cc1ccc(O)cc1)NC(=O)[C@H](CC(N)=O)NC(=O)[C@H](CC(=O)O)NC(=O)[C@@H](NC(=O)[C@H](Cc1ccccc1)NC(=O)[C@@H](NC(=O)[C@H](C)NC(=O)[C@H](CC(=O)O)NC(=O)[C@H](CO)NC(=O)[C@@H](N)Cc1c[nH]cn1)C(C)C)[C@@H](C)O)[C@@H](C)O)C(C)C)C(=O)N[C@@H](CC(C)C)C(=O)N[C@@H](CC(N)=O)C(N)=O [VIP, Vasoactive intestinal polypeptide]
c-fos mRNA ([6]; 10 nM, NCIH810 cells, after 1 hour, NONE = 1.0): 5.6
effect on c-fos mRNA (in words) ([6]; antagonist co-administered with VIP or added by itself): stimulates c-los mRNA
EC50 ([7]; 24 hour VIP treatment, added one day after seeding, read-out: EC50, stimulation of NMB cell division by cell counts): 500 nM
mitosis when added 48 hours after plating ([7]; additional 24 hours incubation): did not stimulate mitosis
concentration at peak of mitogenic activity ([7]; cell counts and thymidine incorporation, decreased thereafter): 1 µM
EC50 [8]: 500 nM
fold higher affinity in younger cells (24 hrs) compared with older cells (48 hrs) [9]: about 10 fold
NSCLC colony formation (colonies) (NCI-H1299): 55.8 ± 19.8
NSCLC colony formation (colonies) (NCI-H727): 115 ± 22.7
NSCLC colony formation (colonies) (NCI-H226): 87.4 ± 4.8
stimulation of NSCLC colony formation in agar ([5]; index of cell growth): 2-3 fold
